Measured values: PubChem BioAssay (NCI)
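Where inhibition never reached the appropriate level, the endpoint shown equals the highest concentration tested. Otherwise, values were interpolated linearly from a five-concentration, 48-hour dose response in 96-well plates. TGI marks complete inhibition of growth.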

Columns and labels:
Experiment in all cases: NCI-60 cell line screen, 48 h
[1] = test system: 786-0 renal
[2] = test system: A498 renal
[3] = test system: A549 NSCLC
[4] = test system: ACHN renal
[5] = test system: BT-549 breast
[6] = test system: CAKI-1 renal
[7] = test system: CCRF-CEM leukemia
[8] = test system: COLO 205 colon
[9] = test system: DU-145 prostate
[10] = test system: EKVX NSCLC
[11] = test system: HCT-116 colon
[12] = test system: HCT-15 colon
[13] = test system: HL-60(TB) leukemia
[14] = test system: HOP-62 NSCLC
[15] = test system: HS 578T breast
[16] = test system: HT29 colon
[17] = test system: IGROV1 ovarian
[18] = test system: K-562 leukemia
[19] = test system: KM12 colon
[20] = test system: M14 melanoma
[21] = test system: MCF7 breast
[22] = test system: MDA-MB-231 breast
[23] = test system: MDA-MB-435
[24] = test system: MDA-N
[25] = test system: MOLT-4 leukemia
[26] = test system: NCI-H226 lung
[27] = test system: NCI-H23 lung
[28] = test system: NCI-H460 lung
[29] = test system: NCI/ADR-RES ovarian
[30] = test system: OVCAR-3 ovarian
[31] = test system: OVCAR-5 ovarian
[32] = test system: OVCAR-8 ovarian
[33] = test system: PC-3 prostate
[34] = test system: RPMI-8226 leukemia
[35] = test system: RXF 393 renal
[36] = test system: SF-268 CNS
[37] = test system: SF-295 CNS
[38] = test system: SF-539 CNS
[39] = test system: SK-MEL-2 melanoma
[40] = test system: SK-MEL-28 melanoma
[41] = test system: SK-MEL-5 melanoma
[42] = test system: SN12C renal
[43] = test system: SNB-19 CNS
[44] = test system: SNB-75 CNS
[45] = test system: SR leukemia
[46] = test system: SW-620 colon
[47] = test system: T-47D breast
[48] = test system: TK-10 renal
[49] = test system: U251 CNS
[50] = test system: UACC-257 melanoma
[51] = test system: UACC-62 melanoma
[52] = test system: UO-31 renal
[53] = test system: HCC-2998 colon
[54] = test system: HOP-92 NSCLC
[55] = test system: LOX IMVI melanoma
[56] = test system: MALME-3M melanoma
[57] = test system: NCI-H522 lung
[58] = test system: OVCAR-4 ovarian
[59] = test system: SK-OV-3 ovarian

Cn1ncc2[nH]cnc2c1=S
TGI [1]: > 100 µM | TGI [2]: > 100 µM | TGI [3]: > 100 µM | TGI [4]: > 100 µM | TGI [5]: > 100 µM | TGI [6]: > 100 µM | TGI [7]: 66.8 µM | TGI [8]: > 100 µM | TGI [9]: > 100 µM | TGI [10]: > 100 µM | TGI [11]: > 100 µM | TGI [12]: > 100 µM | TGI [13]: 24.6 µM | TGI [14]: > 100 µM | TGI [15]: > 100 µM | TGI [16]: > 100 µM | TGI [17]: > 100 µM | TGI [18]: > 100 µM | TGI [19]: > 100 µM | TGI [20]: > 100 µM | TGI [21]: > 100 µM | TGI [22]: > 100 µM | TGI [23]: > 100 µM | TGI [24]: > 100 µM | TGI [25]: > 100 µM | TGI [26]: > 100 µM | TGI [27]: > 100 µM | TGI [28]: > 100 µM | TGI [29]: > 100 µM | TGI [30]: > 100 µM | TGI [31]: > 100 µM | TGI [32]: > 100 µM | TGI [33]: > 100 µM | TGI [34]: > 100 µM | TGI [35]: > 100 µM | TGI [36]: > 100 µM | TGI [37]: > 100 µM | TGI [38]: > 100 µM | TGI [39]: > 100 µM | TGI [40]: > 100 µM | TGI [41]: > 100 µM | TGI [42]: > 100 µM | TGI [43]: > 100 µM | TGI [44]: > 100 µM | TGI [45]: > 100 µM | TGI [46]: > 100 µM | TGI [47]: > 100 µM | TGI [48]: > 100 µM | TGI [49]: > 100 µM | TGI [50]: > 100 µM | TGI [51]: > 100 µM | TGI [52]: > 100 µM

O=C(Oc1ccc(S(=O)(=O)F)cc1F)c1ccccc1Cl
TGI [1]: > 100 µM | TGI [2]: > 100 µM | TGI [3]: > 100 µM | TGI [4]: > 100 µM | TGI [5]: > 100 µM | TGI [6]: > 100 µM | TGI [8]: 44.6 µM | TGI [9]: > 100 µM | TGI [10]: 72.3 µM | TGI [53]: > 100 µM | TGI [11]: > 100 µM | TGI [12]: > 100 µM | TGI [13]: > 100 µM | TGI [14]: > 100 µM | TGI [54]: 65.1 µM | TGI [15]: 65.2 µM | TGI [16]: 72.9 µM | TGI [17]: > 100 µM | TGI [18]: > 100 µM | TGI [19]: 60.9 µM | TGI [55]: > 100 µM | TGI [20]: > 100 µM | TGI [56]: 86.4 µM | TGI [21]: 83.9 µM | TGI [22]: 58 µM | TGI [23]: 74.6 µM | TGI [24]: > 100 µM | TGI [26]: > 100 µM | TGI [27]: 53.9 µM | TGI [28]: 70.5 µM | TGI [57]: 42 µM | TGI [29]: > 100 µM | TGI [30]: 75.6 µM | TGI [58]: 94.5 µM | TGI [31]: > 100 µM | TGI [32]: > 100 µM | TGI [33]: > 100 µM | TGI [34]: 45.6 µM | TGI [35]: 64.5 µM | TGI [36]: > 100 µM | TGI [37]: 89.4 µM | TGI [38]: 62.1 µM | TGI [39]: > 100 µM | TGI [40]: > 100 µM | TGI [41]: 31.1 µM | TGI [59]: > 100 µM | TGI [42]: > 100 µM | TGI [43]: 87.2 µM | TGI [44]: 74.2 µM | TGI [45]: 55.8 µM | TGI [46]: > 100 µM | TGI [47]: 84.3 µM | TGI [48]: > 100 µM | TGI [49]: > 100 µM | TGI [50]: 78.8 µM | TGI [51]: > 100 µM | TGI [52]: 40 µM

CSC1=NN(c2ccccc2)C(=O)C1=C(SC)SC
TGI [1]: > 100 µM | TGI [2]: 35.4 µM | TGI [3]: 64.6 µM | TGI [5]: > 100 µM | TGI [6]: 43.9 µM | TGI [7]: > 100 µM | TGI [8]: 26 µM | TGI [9]: > 100 µM | TGI [10]: > 100 µM | TGI [53]: 91.7 µM | TGI [11]: 53.8 µM | TGI [12]: 76 µM | TGI [13]: 51.8 µM | TGI [15]: > 100 µM | TGI [16]: 43.5 µM | TGI [18]: 45.9 µM | TGI [19]: > 100 µM | TGI [55]: 66.1 µM | TGI [20]: > 100 µM | TGI [56]: 39.6 µM | TGI [21]: 49.6 µM | TGI [22]: 53 µM | TGI [23]: > 100 µM | TGI [24]: > 100 µM | TGI [25]: > 100 µM | TGI [26]: 39.9 µM | TGI [27]: 55.7 µM | TGI [28]: 41.4 µM | TGI [57]: 25.5 µM | TGI [29]: 49.2 µM | TGI [30]: > 100 µM | TGI [58]: > 100 µM | TGI [31]: > 100 µM | TGI [32]: 65.9 µM | TGI [33]: 47 µM | TGI [34]: 47 µM | TGI [35]: 62.7 µM | TGI [36]: > 100 µM | TGI [38]: 70.3 µM | TGI [39]: 73.4 µM | TGI [40]: > 100 µM | TGI [41]: 29.8 µM | TGI [59]: > 100 µM | TGI [42]: 97.8 µM | TGI [43]: 82 µM | TGI [44]: 94.3 µM | TGI [45]: 83.7 µM | TGI [46]: > 100 µM | TGI [47]: 70.3 µM | TGI [48]: 74.6 µM | TGI [49]: 87.6 µM | TGI [50]: 46.7 µM | TGI [51]: 66.7 µM | TGI [52]: 37 µM
